The source made the active and inactive calls. The calls are words filed in the database; no cut-off is given here.
Tests used:
Solanum lycopersicum [1] = test: Increase in plant height of Solanum lycopersicum (tomato) exposed to 400 kg/ha compound fumigation treatment measured 30 days after compound treatment (reference value: 28.4 cm); format: functional
Solanum lycopersicum [2] = test: Increase in plant height of Solanum lycopersicum (tomato) exposed to 400 kg/ha compound fumigation treatment measured 50 days after compound treatment (reference value: 86.2 cm); format: functional
Cucumis sativus [3] = test: Increase in plant height of Cucumis sativus (cucumber) exposed to 400 kg/ha compound fumigation treatment measured 30 days after compound treatment (reference value: 85.6 cm); format: functional
Cucumis sativus [4] = test: Increase in plant height of Cucumis sativus (cucumber) exposed to 400 kg/ha compound fumigation treatment measured 50 days after compound treatment (reference value: 103.2 cm); format: functional
Capsella bursa-pastoris [5] = test: Herbicidal activity against Capsella bursa-pastoris in tomato plants fields exposed to 400 kg/ha compound fumigation treatment assessed as hand weeding time per plot relative to untreated control; format: functional
Capsella bursa-pastoris [6] = test: Herbicidal activity against Capsella bursa-pastoris in cucumber plants fields exposed to 400 kg/ha compound fumigation treatment assessed as hand weeding time per plot relative to untreated control; format: functional
Digitaria sanguinalis [7] = test: Herbicidal activity against Digitaria sanguinalis (hairy crabgrass) in tomato plants fields exposed to 400 kg/ha compound fumigation treatment assessed as hand weeding time per plot relative to untreated control; format: functional
Arenaria serpyllifolia [8] = test: Herbicidal activity against Arenaria serpyllifolia in cucumber plants fields exposed to 400 kg/ha compound fumigation treatment assessed as hand weeding time per plot (reference value: 258.3 hr/ha); format: functional
Digitaria sanguinalis [9] = test: Herbicidal activity against Digitaria sanguinalis (hairy crabgrass) in cucumber plants fields exposed to 400 kg/ha compound fumigation treatment assessed as hand weeding time per plot (reference value: 258.3 hr/ha); format: functional
Capsella bursa-pastoris [10] = test: Herbicidal activity against Capsella bursa-pastoris in cucumber plants fields exposed to 400 kg/ha compound fumigation treatment assessed as hand weeding time per plot (reference value: 258.3 hr/ha); format: functional
Botrytis cinerea = test: Fungicidal activity against Botryotinia fuckeliana-induced withering in tomato plants at 400 kg/ha measured 20 to 60 days post compound treatment; format: functional, organism-based
Meloidogyne incognita [11] = test: Nematicidal activity against Meloidogyne incognita (root-knot nematode) in cucumber growing fields exposed to 400 kg/ha compound fumigation treatment assessed as root galling index measured 20 days after compound treatment (reference value: 8.72 root galling index); format: functional
Solanum lycopersicum [12] = test: Increase in crop yield in Cucumis sativus (cucumber) plants exposed to 400 kg/ha compound fumigation treatment assessed as marketable yield fruit yield (reference value: 65.3 ton/ha); format: functional
Arenaria serpyllifolia [13] = test: Herbicidal activity against Arenaria serpyllifolia in tomato plants fields exposed to 400 kg/ha compound fumigation treatment assessed as hand weeding time per plot (reference value: 243.3 hr/ha); format: functional
Digitaria sanguinalis [14] = test: Herbicidal activity against Digitaria sanguinalis (hairy crabgrass) in tomato plants fields exposed to 400 kg/ha compound fumigation treatment assessed as hand weeding time per plot (reference value: 243.3 hr/ha); format: functional
Capsella bursa-pastoris [15] = test: Herbicidal activity against Capsella bursa-pastoris in tomato plants fields exposed to 400 kg/ha compound fumigation treatment assessed as hand weeding time per plot (reference value: 243.3 hr/ha); format: functional
Phytophthora melonis = test: Fungicidal activity against Phytophthora melonis-induced blight disease in cucumber plants at 400 kg/ha measured 20 to 60 days post compound treatment; format: functional, organism-based
Meloidogyne incognita [16] = test: Nematicidal activity against Meloidogyne incognita (root-knot nematode) in tomato growing fields exposed to 400 kg/ha compound fumigation treatment assessed as root galling index measured 20 days after compound treatment (reference value: 8.51 root galling index); format: functional
Solanum lycopersicum [17] = test: Increase in crop yield in Solanum lycopersicum (tomato) plants exposed to 400 kg/ha compound fumigation treatment assessed as marketable yield fruit yield (reference value: 51.3 ton/ha); format: functional
Arenaria serpyllifolia [18] = test: Herbicidal activity against Arenaria serpyllifolia in cucumber plants fields exposed to 400 kg/ha compound fumigation treatment assessed as hand weeding time per plot relative to untreated control; format: functional
Digitaria sanguinalis [19] = test: Herbicidal activity against Digitaria sanguinalis (hairy crabgrass) in cucumber plants fields exposed to 400 kg/ha compound fumigation treatment assessed as hand weeding time per plot relative to untreated control; format: functional
Arenaria serpyllifolia [20] = test: Herbicidal activity against Arenaria serpyllifolia in tomato plants fields exposed to 400 kg/ha compound fumigation treatment assessed as hand weeding time per plot relative to untreated control; format: functional
Solanum lycopersicum [21] = test: Increase in crop yield in Cucumis sativus (cucumber) plants exposed to 400 kg/ha compound fumigation treatment assessed as medium fruit yield (reference value: 38.6 ton/ha); format: functional
Solanum lycopersicum [22] = test: Increase in crop yield in Solanum lycopersicum (tomato) plants exposed to 400 kg/ha compound fumigation treatment assessed as medium fruit yield (reference value: 32.3 ton/ha); format: functional
Solanum lycopersicum [23] = test: Increase in crop yield in Cucumis sativus (cucumber) plants exposed to 400 kg/ha compound fumigation treatment assessed as large fruit yield (reference value: 19.5 ton/ha); format: functional
Solanum lycopersicum [24] = test: Increase in crop yield in Solanum lycopersicum (tomato) plants exposed to 400 kg/ha compound fumigation treatment assessed as large fruit yield (reference value: 15.2 ton/ha); format: functional
Solanum lycopersicum [25] = test: Increase in crop yield in Cucumis sativus (cucumber) plants exposed to 400 kg/ha compound fumigation treatment assessed as extra-large fruit yield (reference value: 7.2 ton/ha); format: functional
Solanum lycopersicum [26] = test: Increase in crop yield in Solanum lycopersicum (tomato) plants exposed to 400 kg/ha compound fumigation treatment assessed as extra-large fruit yield (reference value: 3.8 ton/ha); format: functional

Question: What does the source list for `CBr` [BROMOMETHANE]?
Answer: Activity (Solanum lycopersicum [1]): 43.5 cm; Activity (Solanum lycopersicum [2]): 118.7 cm; Activity (Cucumis sativus [3]): 108.6 cm; Activity (Cucumis sativus [4]): 132.6 cm; Activity (Capsella bursa-pastoris [5]): 45%; Activity (Capsella bursa-pastoris [6]): 45%; Activity (Digitaria sanguinalis [7]): 45%; Time (Arenaria serpyllifolia [8]): 41.9 hr/ha; Time (Digitaria sanguinalis [9]): 41.9 hr/ha; Time (Capsella bursa-pastoris [10]): 41.9 hr/ha; Activity (Botrytis cinerea): Active; Root_galling_index (Meloidogyne incognita [11]): 3.24; Crop_yield (Solanum lycopersicum [12]): 101.9 tons/ha; Time (Arenaria serpyllifolia [13]): 35.2 hr/ha; Time (Digitaria sanguinalis [14]): 35.2 hr/ha; Time (Capsella bursa-pastoris [15]): 35.2 hr/ha; Activity (Phytophthora melonis): Active; Root_galling_index (Meloidogyne incognita [16]): 3.54; Crop_yield (Solanum lycopersicum [17]): 76.6 tons/ha; Activity (Arenaria serpyllifolia [18]): 45%; Activity (Digitaria sanguinalis [19]): 45%; Activity (Arenaria serpyllifolia [20]): 45%; Crop_yield (Solanum lycopersicum [21]): 55.3 tons/ha; Crop_yield (Solanum lycopersicum [22]): 46.6 tons/ha; Crop_yield (Solanum lycopersicum [23]): 32.3 tons/ha; Crop_yield (Solanum lycopersicum [24]): 21.7 tons/ha; Crop_yield (Solanum lycopersicum [25]): 14.3 tons/ha; Crop_yield (Solanum lycopersicum [26]): 8.3 tons/ha

— ChEMBL document CHEMBL3046912, “Effectiveness of 1,3-dichloropropene as an alternative to methyl bromide in rotations of tomato (Solanum lycopersicum) and cucumber (Cucumis sativus) in China” (2012)
